In US6518243B1, “Desleucyl glycopeptide antibiotics and methods of making same” (Trustees of Princeton University, priority 1999, dated 2003):

Columns and labels:
[1] = tested on: S aureus ATCC 29213; experiment: MIC determination in BHI media, OD600; type: cell-based; conditions: BHI + 0.1% casamino acids, 18 hours at 37° C., ≧90% OD600 inhibition
Procedure, shortened: (§1)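 Starting cell density was near 5×10^5 CFU/ml, taken from exponentially growing cultures. Incubation with the DMSO dilution series ran 18 hours at 37° C.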

[2] = tested on: E. faecium CL 4931; experiment: MIC determination in BHI media, OD600; type: cell-based; conditions: BHI + 0.1% casamino acids, 18 hours at 37° C., ≧90% OD600 inhibition
Procedure, shortened: as §1

[3] = tested on: E. faecium ATCC 49624; experiment: MIC determination in BHI media, OD600; type: cell-based; conditions: BHI + 0.1% casamino acids, 18 hours at 37° C., ≧90% OD600 inhibition
Procedure, shortened: as §1

[4] = tested on: E. faecalis ATCC 29212; experiment: MIC determination in BHI media, OD600; type: cell-based; conditions: BHI + 0.1% casamino acids, 18 hours at 37° C., ≧90% OD600 inhibition
Procedure, shortened: as §1

[5] = tested on: E. Faecalis CL 4877; experiment: MIC determination in BHI media, OD600; type: cell-based; conditions: BHI + 0.1% casamino acids, 18 hours at 37° C., ≧90% OD600 inhibition
Procedure, shortened: as §1

[6] = tested on: S. Aureus ATCC 33591; experiment: MIC determination in BHI media, OD600; type: cell-based; conditions: BHI + 0.1% casamino acids, 18 hours at 37° C., ≧90% OD600 inhibition
Procedure, shortened: as §1

[7] = tested on: E. faecalis (ATCC 292121); experiment: Zone of inhibition screen, 96 well agar array format; type: cell-based; conditions: zone of inhibition relative to 1 mg/ml stock solution of p-chlorobiphenylvancomycin;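 also: score 3 means fourfold and score 4 sixteenfold the reference zone size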
Description: The antibacterial activity of each of the compounds against the bacterial strains E. faceium (ATCC 49624), S. epidermidis (ATCC 12228), S. aureus (ATCC 29213), E. faecalis (CL 4877) and E. faecalis (ATCC 292121) was tested. Each of the compounds was screened in a 96 will agar array format.

[8] = tested on: E. faecalis (CL 4877); experiment: as above; type: cell-based; design: scale not given here; conditions: zone of inhibition relative to 1 mg/ml stock solution of p-chlorobiphenylvancomycin
Procedure, shortened: (§2)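 Panel screening of every compound against several bacterial strains, among them E. faecium ATCC 49624, was done in a 96-well agar array.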

[9] = tested on: E. faceium (ATCC 49624); experiment: as above; type: cell-based, E. faecium; conditions: zone of inhibition relative to 1 mg/ml stock solution of p-chlorobiphenylvancomycin;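 also: score 3 means fourfold and score 4 sixteenfold the reference zone size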
Procedure, shortened: as §2

[10] = tested on: S. aureus (ATCC 29213); experiment: as above; type: cell-based; design: scale not given here; conditions: zone of inhibition relative to 1 mg/ml stock solution of p-chlorobiphenylvancomycin
Procedure, shortened: as §2

[11] = tested on: S. epidermidis (ATCC 12228); experiment: as above; type: cell-based; design: scale not given here; conditions: zone of inhibition relative to 1 mg/ml stock solution of p-chlorobiphenylvancomycin
Procedure, shortened: as §2

MIC S. aureus ATCC 29213 [1] [µg/mL]	MIC E. faecium CL 4931 [2] [µg/mL]	MIC E. faecium ATCC 49624 [3] [µg/mL]	MIC E. faecalis ATCC 29212 [4] [µg/mL]	MIC E. faecalis CL 4877 [5] [µg/mL]	MIC S. aureus ATCC 33591 [6] [µg/mL]	Structure (SMILES)	zone score, E. faecalis ATCC 29212 [7]	zone score, E. faecalis CL 4877 [8]	zone score, E. faecium ATCC 49624 [9]	zone score, S. aureus ATCC 29213 [10]	zone score, S. epidermidis ATCC 12228 [11]
0.78	25	0.39	0.78	25	0.39	C[C@H]1O[C@H](O[C@H]2[C@H](Oc3c4cc5cc3Oc3ccc(cc3Cl)[C@@H](O)[C@@H](NC(=O)[C@H](N)Cc3cccnc3)C(=O)N[C@@H](CC(N)=O)C(=O)N[C@H]5C(=O)N[C@H]3C(=O)N[C@H](C(=O)N[C@@H](C(=O)O)c5cc(O)cc(O)c5-c5cc3ccc5O)[C@H](O)c3ccc(c(Cl)c3)O4)O[C@H](CO)[C@@H](O)[C@@H]2O)C[C@@](C)(NCc2ccc(-c3ccc(Cl)cc3)cc2)[C@H]1O [Compound 556]	–	–	–	–	–
0.78	25	0.39	–	–	0.78	CC(O)C(N)C(=O)NC1C(=O)NC(CC(N)=O)C(=O)NC2C(=O)NC3C(=O)NC(C(=O)NC(C(=O)O)c4cc(O)cc(O)c4-c4cc3ccc4O)C(O)c3ccc(c(Cl)c3)Oc3cc2cc(c3OC2OC(CO)C(O)C(O)C2OC2CC(C)(NCc3ccc(-c4ccc(Cl)cc4)cc3)C(O)C(C)O2)Oc2ccc(cc2Cl)C1O (stereo not shown) [Compound 64]	2	2	–	–	–
–	–	–	–	–	–	C[C@H]1O[C@H](O[C@H]2[C@H](Oc3c4cc5cc3Oc3ccc(cc3Cl)[C@@H](O)[C@@H](NC(=O)CN)C(=O)N[C@@H](CC(N)=O)C(=O)N[C@H]5C(=O)N[C@H]3C(=O)N[C@H](C(=O)N[C@@H](C(=O)O)c5cc(O)cc(O)c5-c5cc3ccc5O)[C@H](O)c3ccc(c(Cl)c3)O4)O[C@H](CO)[C@@H](O)[C@@H]2O)C[C@@](C)(NCc2ccc(-c3ccc(Cl)cc3)cc2)[C@H]1O [Compound 28]	2	2	2	–	–
–	–	–	–	–	–	CNCC(=O)N[C@H]1C(=O)N[C@@H](CC(N)=O)C(=O)N[C@H]2C(=O)N[C@H]3C(=O)N[C@H](C(=O)N[C@@H](C(=O)O)c4cc(O)cc(O)c4-c4cc3ccc4O)[C@H](O)c3ccc(c(Cl)c3)Oc3cc2cc(c3O[C@@H]2O[C@H](CO)[C@@H](O)[C@H](O)[C@H]2O[C@@H]2C[C@@](C)(NCc3ccc(-c4ccc(Cl)cc4)cc3)[C@@H](O)[C@@H](C)O2)Oc2ccc(cc2Cl)[C@H]1O [Compound 8]	2	2	–	–	–
0.78	25	0.25	–	25	0.78	C[C@H](OC(C)(C)C)[C@@H](N)C(=O)N[C@H]1C(=O)N[C@@H](CC(N)=O)C(=O)N[C@H]2C(=O)N[C@H]3C(=O)N[C@H](C(=O)N[C@@H](C(=O)O)c4cc(O)cc(O)c4-c4cc3ccc4O)[C@H](O)c3ccc(c(Cl)c3)Oc3cc2cc(c3O[C@@H]2O[C@H](CO)[C@@H](O)[C@H](O)[C@H]2O[C@@H]2C[C@@](C)(NCc3ccc(-c4ccc(Cl)cc4)cc3)[C@@H](O)[C@@H](C)O2)Oc2ccc(cc2Cl)[C@H]1O [Compound 18]	–	–	2	2	–
> 25	> 25	> 25	> 25	> 25	> 25	CC1OC(OC2C(Oc3c4cc5cc3Oc3ccc(cc3Cl)C(O)C3NC(=O)C(NC(=O)C5NC(=O)C(CC(N)=O)NC(=O)C(N)C(O)c5ccc(c(Cl)c5)O4)c4ccc(O)c(c4)-c4c(O)cc(O)cc4C(C(=O)O)NC3=O)OC(CO)C(O)C2O)CC(C)(NCc2ccc(-c3ccc(Cl)cc3)cc2)C1O (stereo not shown) [Compound 522, Des-Lecyl Vancomycin, reference compound]	–	–	–	–	–
0.25	–	0.25	0.39	–	0.25	C[C@H]1O[C@H](O[C@H]2[C@H](Oc3c4cc5cc3Oc3ccc(cc3Cl)[C@@H](O)[C@@H](NC(=O)[C@H](N)Cc3c[nH]c6ccccc36)C(=O)N[C@@H](CC(N)=O)C(=O)N[C@H]5C(=O)N[C@H]3C(=O)N[C@H](C(=O)N[C@@H](C(=O)O)c5cc(O)cc(O)c5-c5cc3ccc5O)[C@H](O)c3ccc(c(Cl)c3)O4)O[C@H](CO)[C@@H](O)[C@@H]2O)C[C@@](C)(NCc2ccc(-c3ccc(Cl)cc3)cc2)[C@H]1O [Compound 25]	2	2	2	2	–
–	25	0.39	–	25	–	CC1OC(OC2C(Oc3c4cc5cc3Oc3ccc(cc3Cl)C(O)C3NC(=O)C(NC(=O)C5NC(=O)C(CC(N)=O)NC(=O)C(NC(=O)C(N)CCCCNC(=O)CCCCC5SCC6NC(=O)NC65)C(O)c5ccc(c(Cl)c5)O4)c4ccc(O)c(c4)-c4c(O)cc(O)cc4C(C(=O)O)NC3=O)OC(CO)C(O)C2O)CC(C)(NCc2ccc(-c3ccc(Cl)cc3)cc2)C1O (stereo not shown) [Compound 75]	2	2	2	–	2
0.062	–	0.062	0.25	3.91	0.12	C[C@H]1O[C@H](O[C@H]2[C@H](Oc3c4cc5cc3Oc3ccc(cc3Cl)[C@@H](O)[C@@H](NC(=O)[C@H](N)COC(C)(C)C)C(=O)N[C@@H](CC(N)=O)C(=O)N[C@H]5C(=O)N[C@H]3C(=O)N[C@H](C(=O)N[C@@H](C(=O)O)c5cc(O)cc(O)c5-c5cc3ccc5O)[C@H](O)c3ccc(c(Cl)c3)O4)O[C@H](CO)[C@@H](O)[C@@H]2O)C[C@@](C)(NCc2ccc(-c3ccc(Cl)cc3)cc2)[C@H]1O [Compound 17]	–	–	–	–	–
–	–	–	–	–	–	CC1OC(OC2C(Oc3c4cc5cc3Oc3ccc(cc3Cl)C(O)C3NC(=O)C(NC(=O)C5NC(=O)C(CC(N)=O)NC(=O)C(NC(=O)C(N)CCC(N)=O)C(O)c5ccc(c(Cl)c5)O4)c4ccc(O)c(c4)-c4c(O)cc(O)cc4C(C(=O)O)NC3=O)OC(CO)C(O)C2O)CC(C)(NCc2ccc(-c3ccc(Cl)cc3)cc2)C1O (stereo not shown) [Compound 57]	2	–	2	–	–
